{
  "source": "paper PMC7769561",
  "about": "“Antileishmanial activity of synthetic analogs of the naturally occurring quinolone alkaloid N-methyl-8-methoxyflindersin” (PLoS ONE, 2020); as to Cell membrane (ultrastructural alteration grade): key: -: no alteration/absence; +: low alteration/low presence; ++: alteration/moderate presence; +++: serious disturbance/abundant presence; as to Flagellum (flagellar/axonema pocket) (grade): key: -: no alteration/absence; +: low alteration/low presence; ++: alteration/moderate presence; +++: serious disturbance/abundant presence; as to LB (lipid bodies, grade): key: -: no alteration/absence; +: low alteration/low presence; ++: alteration/moderate presence; +++: serious disturbance/abundant presence; as to Mitochondria/Kinetoplasts (ultrastructural alteration grade): key: -: no alteration/absence; +: low alteration/low presence; ++: alteration/moderate presence; +++: serious disturbance/abundant presence",
  "key": {"[1]": {"tested_on": "L. (V.) panamensis (MHOM/COL/87/UA140-EGFP)", "experiment": "Therapeutic in vivo response in hamsters with experimental cutaneous leishmaniasis", "parameters": "species or system golden hamster (Mesocrisetus auratus)", "from_the_text": "We used a golden hamster (Mesocrisetus auratus) model to evaluate the therapeutic response of synthetic alkaloid compounds 2 and 8. Male and female 6-week-old hamsters with a mean live weight (LW) of 120 g were infected by a dorsal intradermic injection of L. (V.) panamensis (MHOM/COL/87/UA140-EGFP) promastigotes. After the infected hamsters developed ulcers, they were randomly divided into three groups (n = 6 each) and treated topically with 1% ointment formulated from compounds 2 and 8.\n(§1) The hamsters were monitored every 4 weeks to assess their appearance and weight and the lesion size. We categorized each compound’s effectiveness pre- and posttreatment as follows: (i) cure (complete disappearance of lesions), (ii) improvement (>10% reduced lesion area), and (iii) therapeutic failure or nonresponse (increased lesion size). The health status was monitored weekly for 3 months (12 weeks) posttreatment. After 3 months, the hamsters were euthanized in a CO2 chamber. We performed histopathological analysis after necropsy of the affected tissues and organs. In addition, we evaluated treatment cytotoxicity using LW monitoring and biochemical parameters (alanine aminotransferase [ALT], creatinine, and blood urea nitrogen [BUN]) pretreatment and 45 days after ointment administration.\nThe in vivo efficacy of compounds 1, 2, and 8 was expressed as a percentage cure, improvement, or nonresponse compared to the beginning of treatment. Efficacy was evaluated in vivo to compare percentages, the frequency of change, and treatment cytotoxicity in the hamster model. We used GraphPad Prism to determine ROS and NO production and the apoptotic cell percentage. One- or two-way analysis of variance (ANOVA; response–time kinetics) was used to compare treatments after confirming normal data distribution. P < 0.05 was considered statistically significant by comparing untreated cells (experiments on untreated hMDMs) with infected cells (experiments on untreated and treated hMDMs)."}, "[2]": {"tested_on": "L. (V.) panamensis-infected hMDMs", "experiment": "NO production in L. (V.) panamensis-infected hMDMs (DAF-FM flow cytometry)", "format": "cell-based, human", "details": "compound at EC50, 24, 48 and 72 h", "protocol": "(§2) Next, we detached the cells with ethylenediaminetetraacetic acid (EDTA)/trypsin (Lonza, MD, USA) and 2',7'-dichlorodihydrofluorescein diacetate (H2DCFDA) tagged on a 5 μM fluorescent tube (Sigma-Aldrich) in order to identify intracellular ROS and/or 4-amino-5-methylamino-2′,7′-difluorofluorescein (DAF-FM; Sigma-Aldrich) for NO production in a 5% CO2 atmosphere for 45 min at 37°C. ROS and NO were quantified using flow cytometry (FACS Canto II) at a wavelength of 480 nm. Untreated cells were used as negative controls, while cells treated with 0.0001% H2O2 and 1 μM phorbol myristate acetate were used as ROS production (positive) controls. LPS (10 ng/mL) and phytohemagglutinin (PHA-M) (10 μL/mL) (Invitrogen) were used as positive controls for NO production."}, "[3]": {"experiment": "Treatment toxicity in hamsters (live weight, ALT, creatinine, BUN)", "format": "in vivo, golden hamster (Mesocrisetus auratus)", "details": "topical 1% ointment", "from_the_text": "as §1"}, "[4]": {"tested_on": "hMDMs", "experiment": "Cytotoxicity in hMDMs (resazurin, 72 h)", "details": "class by CC50", "protocol": "We isolated hMDMs from buffy coats donated by the Institute of Local Science (Biotechnology and Health Innovation, Bogotá, Colombia) and spun them in Lymphoprep density gradient medium (Stem-Cell, Vancouver, Canada).\nNext, we added 100 μL of this culture to each quinoline alkaloid–like compound at a concentration of 200, 20, 2, 0.2, and 0.02 μg/mL. […] Cells treated with amphotericin B (Sigma-Aldrich) were used as cell apoptosis (positive) controls. Results were expressed as the medial cytotoxic concentration (CC50) using Prism GraphPad software for nonlinear regression analysis (https://www.graphpad.com/scientific-software/prism/).\n(§3) All assays required at least three independently duplicated experiments. We determined cytotoxicity against hMDMs and effectivity in L. (V) panamensis promastigotes according to each treatment’s mortality (compound and concentration) using Eq 1, where the control mean fluorescence intensity (MFI) was 100% viability: Validityinhibition(%)=100−[MIFexposedcells/MIFunexposedcells×100] (1)\n(§4) We used GraphPad Prism nonlinear regression analysis to estimate the percentage mortality with regard to CC50 and EC50. […] The antileishmanial activity with regard to promastigotes was classified as active according to Eq 2: Active=EC50<[LC50/2], (2) where LC50 is the median lethal concentration. We also used GraphPad Prism nonlinear regression analysis to determine the intracellular antileishmanial activity (concentration vs. response), depending on the infection (number of infected cells) and parasite burden (number of parasites/cell) obtained in experimental conditions. Parasite inhibition was estimated using Eq 3, where the plate MFI is 100% parasites: Infectioninhibition(%)=100−[(MIFexposedparasites/MIFunexposedparasites×100)] (3)"}, "[5]": {"tested_on": "L. (V.) panamensis promastigotes", "experiment": "Antileishmanial activity in L. (V.) panamensis promastigotes (resazurin, 72 h)", "format": "cell-based, Leishmania (Viannia) panamensis", "details": "L. (V.) panamensis promastigotes, ± SD", "protocol": "They were treated with quinoline alkaloid–like compounds at a concentration of 100, 10, 1, 0.1, and 0.01 μg/mL for 72 h at 26°C. Next, we determined antileishmanial activity using the resazurin method (Sigma-Aldrich). Promastigotes treated with amphotericin B (Sigma-Aldrich) and pentamidine (Sanofi-Aventis, Gentilly, France) were used as parasite death (positive) controls. Results were expressed as the medial effective concentration (EC50) using Prism GraphPad software for nonlinear regression analysis (https://www.graphpad.com/scientific-software/prism/).\nas §3, §4"}, "[6]": {"tested_on": "L. (V.) panamensis-infected hMDMs", "experiment": "ROS generation in L. (V.) panamensis-infected hMDMs (H2DCFDA flow cytometry)", "format": "cell-based, human", "protocol": "as §2"}, "[7]": {"tested_on": "L. (V.) panamensis intracellular amastigotes", "experiment": "Transmission electron microscopy of L. (V.) panamensis intracellular amastigotes in hMDMs", "format": "cell-based, Leishmania (Viannia) panamensis", "parameters": "Nucleus (ultrastructural alteration grade) / Vacuoles (ultrastructural alteration grade): key: -: no alteration/absence; +: low alteration/low presence; ++: alteration/moderate presence; +++: serious disturbance/abundant presence", "details": "compound at EC50, 72 h, TEM", "from_the_text": "This procedure involved including fresh resin and 100–200-nm-wide ultrafine cuts observed by TEM (100X–10.000X) (HITACHI-HU-12; Hitachi, Tokyo, Japan)."}, "[8]": {"details": "hamsters, topical 1% ointment, 3 months posttreatment, n = 6"}},
  "data": [
    {"substance": "1,2,3,4-tetrahydro(benzo)-3-quinolin-ol [Compound 2]", "values": [
      {"measurement": "Histopathologic analysis of the skin, cured hamsters", "setting": "[1]; hamsters cured by treatment, hematoxylin/eosin", "value": "moderate orthokeratotic hyperkeratosis and low mononuclear leukocyte infiltration"},
      {"measurement": "Histopathologic analysis of the skin, hamsters showing improvement", "setting": "[1]; hamsters showing improvement, hematoxylin/eosin", "value": "severe leukocyte infiltratation and abundant L. (V.) panamensis being phagocytosed by hMDMs"},
      {"measurement": "Lesion size during treatment", "setting": "[1]; hamsters, topical 1% ointment", "value": "significantly reduced lesions"},
      {"measurement": "Improvement (reduced lesion size), percentage of the experimental group", "setting": "[1]; [8]", "value": 66.6, "unit": "%"},
      {"measurement": "Total cure (healing), percentage of the experimental group", "setting": "[1]; [8]", "value": 33.3, "unit": "%"},
      {"measurement": "NO production compared to untreated infected hMDMs", "setting": "[2]", "value": "do not modulate the induction of NO production"},
      {"measurement": "Cytotoxicity-related clinical manifestations", "setting": "[3]", "value": "No cytotoxicity-related clinical manifestations"},
      {"measurement": "Live weight posttreatment", "setting": "[3]", "value": "no evident changes during treatment"},
      {"measurement": "Cytotoxicity class toward hMDMs", "setting": "[4]", "value": "high (high if CC50 < 100 μg/mL)"},
      {"measurement": "EC50 Intracellular promastigotes", "setting": "[5]", "value": "3.4 ± 1.1", "unit": "µg/mL"},
      {"measurement": "EC50", "setting": "[5]; read-out: EC50 Intracellular promastigotes (converted)", "value": 17, "unit": "µM"},
      {"measurement": "ROS generation", "setting": "[6]; compound at EC50, 48 h posttreatment", "value": "decrease in ROS generation"},
      {"measurement": "ROS generation", "setting": "[6]; compound at EC50, first 4 h", "value": "increase in ROS generation"},
      {"measurement": "Cell membrane (ultrastructural alteration grade)", "setting": "[7]", "value": "-"},
      {"measurement": "Flagellum (flagellar/axonema pocket) (description)", "setting": "[7]", "value": "Multiple organelles"},
      {"measurement": "Flagellum (flagellar/axonema pocket) (grade)", "setting": "[7]", "value": "++"},
      {"measurement": "LB (lipid bodies, grade)", "setting": "[7]", "value": "+++"},
      {"measurement": "Mitochondria/Kinetoplasts (description)", "setting": "[7]", "value": "Multiple organelles"},
      {"measurement": "Mitochondria/Kinetoplasts (ultrastructural alteration grade)", "setting": "[7]", "value": "++"},
      {"measurement": "Nucleus (description)", "setting": "[7]", "value": "Abnormal distribution of chromatine"},
      {"measurement": "Nucleus (ultrastructural alteration grade)", "setting": "[7]", "value": "++"},
      {"measurement": "PV (description)", "setting": "[7]", "value": "Multiple"},
      {"measurement": "PV (parasitophorous vacuoles, grade)", "setting": "[7]", "value": "+"},
      {"measurement": "Vacuoles (description)", "setting": "[7]", "value": "Double membrane (autophagic-digestives)"},
      {"measurement": "Vacuoles (ultrastructural alteration grade)", "setting": "[7]", "value": "+++"}
    ]}
  ]
}
